ChEMBL document CHEMBL1921760, “Design, synthesis and biological evaluation of 6-pyridylmethylaminopurines as CDK inhibitors” (Bioorg Med Chem, 2011)
Calls of active or inactive are those of the source. The rule behind the calls is not given here.

How the values were obtained:
[1] = molecular target: Cyclin-dependent kinase 4/cyclin D1 (Homo sapiens, UniProt P11802); assay: Inhibition of CDK4/cyclin D1; type: protein-complex assay
[2] = test system: CH1; assay: Growth inhibition of doxorubicin-susceptible human CH1 cells after 96 hrs by sulforhodamine B assay; type: functional; settings: CH1, 96 h
[3] = Inhibition of PKA
[4] = test system: A2780; assay: Growth inhibition of cisplatin-susceptible human A2780 cells after 96 hrs by sulforhodamine B assay; type: functional; settings: A2780, 96 h
[5] = molecular target: Mitogen-activated protein kinase 1 (Homo sapiens, UniProt P28482); assay: Inhibition of ERK2
Mitogen-activated protein kinase 1, sequence (P28482 whole entry): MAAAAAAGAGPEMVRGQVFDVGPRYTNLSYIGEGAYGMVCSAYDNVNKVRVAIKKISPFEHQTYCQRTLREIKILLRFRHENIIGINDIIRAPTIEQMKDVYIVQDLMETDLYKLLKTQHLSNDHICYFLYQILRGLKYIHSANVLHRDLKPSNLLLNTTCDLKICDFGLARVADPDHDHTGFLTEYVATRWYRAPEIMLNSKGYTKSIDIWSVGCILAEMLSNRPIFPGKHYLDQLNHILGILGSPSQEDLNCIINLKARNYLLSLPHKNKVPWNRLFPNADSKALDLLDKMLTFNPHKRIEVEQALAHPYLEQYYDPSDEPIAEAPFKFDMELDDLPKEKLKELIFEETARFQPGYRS

[6] = test system: KM12; assay: Growth inhibition of human KM12 cells after 96 hrs by sulforhodamine B assay; type: functional; settings: KM12, 96 h
[7] = molecular target: Cyclin-dependent kinase 1/cyclin B1 (Homo sapiens, UniProt P06493); assay: Inhibition of CDK1/cyclin B; type: protein-complex assay
Cyclin-dependent kinase 1/cyclin B1, sequence (P06493 whole entry): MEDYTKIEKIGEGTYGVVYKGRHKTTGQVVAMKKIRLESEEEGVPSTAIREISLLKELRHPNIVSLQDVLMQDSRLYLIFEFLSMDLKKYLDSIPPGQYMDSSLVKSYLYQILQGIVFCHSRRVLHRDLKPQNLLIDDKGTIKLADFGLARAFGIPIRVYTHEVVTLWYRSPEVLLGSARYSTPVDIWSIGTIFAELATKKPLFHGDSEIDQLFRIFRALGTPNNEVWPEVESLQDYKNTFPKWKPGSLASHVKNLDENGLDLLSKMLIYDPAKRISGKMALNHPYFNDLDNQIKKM
Cyclin-dependent kinase 1/cyclin B1, sequence (P14635 whole entry, further chain): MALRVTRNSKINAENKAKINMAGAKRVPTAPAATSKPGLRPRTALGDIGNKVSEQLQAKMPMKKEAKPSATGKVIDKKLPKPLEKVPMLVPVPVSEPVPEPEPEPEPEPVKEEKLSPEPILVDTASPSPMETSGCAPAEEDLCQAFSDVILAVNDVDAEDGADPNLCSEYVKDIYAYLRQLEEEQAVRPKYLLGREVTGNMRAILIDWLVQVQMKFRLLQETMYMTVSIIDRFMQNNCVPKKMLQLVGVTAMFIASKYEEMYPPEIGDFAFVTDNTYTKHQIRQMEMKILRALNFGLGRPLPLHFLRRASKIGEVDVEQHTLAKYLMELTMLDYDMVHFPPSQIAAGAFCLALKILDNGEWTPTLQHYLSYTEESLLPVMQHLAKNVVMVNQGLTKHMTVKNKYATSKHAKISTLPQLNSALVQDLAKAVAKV

[8] = test system: HT-29; assay: Growth inhibition of human HT-29 cells after 96 hrs by sulforhodamine B assay; type: functional; settings: HT-29, 96 h
[9] = test system: HCT-116; assay: Growth inhibition of human HCT116 cells after 96 hrs by sulforhodamine B assay; type: functional; settings: HCT-116, 96 h
[10] = test system: A2780; assay: Growth inhibition of cisplatin-resistant human A2780 cells after 96 hrs by sulforhodamine B assay; type: functional; settings: A2780, 96 h
[11] = molecular target: Cyclin-dependent kinase 2/cyclin E1 (Homo sapiens, UniProt P24941); assay: Inhibition of CDK2/cyclin E; type: protein-complex assay
[12] = molecular target: Cyclin-dependent kinase 7/ cyclin H (Homo sapiens, UniProt P50613); assay: Inhibition of CDK7/cyclin H; type: protein-complex assay
Cyclin-dependent kinase 7/ cyclin H, sequence (P51946 whole entry): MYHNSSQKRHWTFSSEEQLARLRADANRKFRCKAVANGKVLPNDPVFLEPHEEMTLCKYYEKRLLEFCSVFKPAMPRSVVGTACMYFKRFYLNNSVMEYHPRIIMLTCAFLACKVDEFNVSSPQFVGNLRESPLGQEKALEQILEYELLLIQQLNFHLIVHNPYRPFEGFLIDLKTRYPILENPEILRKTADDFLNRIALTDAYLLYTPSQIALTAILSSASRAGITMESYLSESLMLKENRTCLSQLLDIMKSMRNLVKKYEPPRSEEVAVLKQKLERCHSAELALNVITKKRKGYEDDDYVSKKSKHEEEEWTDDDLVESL
Cyclin-dependent kinase 7/ cyclin H, sequence (P50613 whole entry): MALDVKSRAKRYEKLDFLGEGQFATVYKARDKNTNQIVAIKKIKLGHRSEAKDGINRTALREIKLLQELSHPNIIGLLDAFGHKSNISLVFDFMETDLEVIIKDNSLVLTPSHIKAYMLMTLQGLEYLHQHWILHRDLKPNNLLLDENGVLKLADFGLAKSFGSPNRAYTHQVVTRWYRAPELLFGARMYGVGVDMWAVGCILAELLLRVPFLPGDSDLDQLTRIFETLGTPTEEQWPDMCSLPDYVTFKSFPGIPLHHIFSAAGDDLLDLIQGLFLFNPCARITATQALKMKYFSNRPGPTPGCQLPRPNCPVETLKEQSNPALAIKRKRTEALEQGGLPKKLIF

[13] = Metabolic stability in mouse liver microsomes assessed as compound metabolized at 10 uM after 30 mins by LC-MS analysis; type: ADME, Microsome; settings: read-out: Activity
[14] = test system: CH1; assay: Growth inhibition of doxorubicin-resistant human CH1 cells after 96 hrs by sulforhodamine B assay; type: functional; settings: CH1, 96 h
[15] = test system: Mus musculus; assay: Ratio of Seliciclib clearance to compound clearance in BALB/c mouse plasma at 50 mg/kg, iv after 24 hrs by LC-MS analysis; type: ADME, organism-based; parameters: dose 50 mg/kg, route intravenous; settings: in vivo
[16] = Clearance in BALB/c mouse plasma at 50 mg/kg, iv after 24 hrs by LC-MS analysis; type: ADME, organism-based; parameters: dose 50 mg/kg, route intravenous
[17] = Cmax in BALB/c mouse plasma at 50 mg/kg, iv after 24 hrs by LC-MS analysis; type: ADME, organism-based; parameters: dose 50 mg/kg, route intravenous
[18] = Half life in BALB/c mouse plasma at 50 mg/kg, iv by LC-MS analysis; type: ADME, organism-based; parameters: dose 50 mg/kg, route intravenous
[19] = Oral bioavailability in BALB/c mouse at 50 mg/kg by LC-MS analysis; type: ADME, organism-based; settings: in vivo
[20] = AUC in BALB/c mouse plasma at 50 mg/kg, iv after 24 hrs by LC-MS analysis; type: ADME, organism-based; parameters: time < 24 hr, dose 50 mg/kg, route intravenous
[21] = Volume of distribution in BALB/c mouse plasma at 50 mg/kg, iv after 24 hrs by LC-MS analysis; type: ADME, organism-based; parameters: dose 50 mg/kg, route intravenous
[22] = Solubility of the compound in water; type: physicochemical
[23] = molecular target: CDK9/cyclin T1 (Homo sapiens, UniProt P50750); assay: Inhibition of CDK9/cyclin T1; type: protein-complex assay
CDK9/cyclin T1, sequence (O60563 whole entry): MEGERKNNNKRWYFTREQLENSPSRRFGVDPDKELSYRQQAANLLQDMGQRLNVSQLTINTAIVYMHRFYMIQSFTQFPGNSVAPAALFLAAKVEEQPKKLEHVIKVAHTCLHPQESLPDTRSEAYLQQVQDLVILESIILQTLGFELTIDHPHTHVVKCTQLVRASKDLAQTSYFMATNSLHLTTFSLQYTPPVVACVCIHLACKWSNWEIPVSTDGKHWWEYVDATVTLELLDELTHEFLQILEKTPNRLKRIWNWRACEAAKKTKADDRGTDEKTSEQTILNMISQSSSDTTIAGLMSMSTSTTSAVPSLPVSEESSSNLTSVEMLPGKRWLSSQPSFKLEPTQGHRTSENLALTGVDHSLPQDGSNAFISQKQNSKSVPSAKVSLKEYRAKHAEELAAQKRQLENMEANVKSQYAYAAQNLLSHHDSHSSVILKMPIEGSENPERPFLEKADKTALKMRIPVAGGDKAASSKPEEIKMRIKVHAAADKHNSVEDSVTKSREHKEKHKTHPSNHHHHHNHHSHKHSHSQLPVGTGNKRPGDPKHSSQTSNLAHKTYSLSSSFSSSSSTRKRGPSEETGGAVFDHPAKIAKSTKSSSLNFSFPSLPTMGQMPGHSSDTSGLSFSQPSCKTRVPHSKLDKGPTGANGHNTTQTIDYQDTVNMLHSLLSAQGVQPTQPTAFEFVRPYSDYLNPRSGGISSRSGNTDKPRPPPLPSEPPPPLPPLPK
CDK9/cyclin T1, sequence (P50750 whole entry): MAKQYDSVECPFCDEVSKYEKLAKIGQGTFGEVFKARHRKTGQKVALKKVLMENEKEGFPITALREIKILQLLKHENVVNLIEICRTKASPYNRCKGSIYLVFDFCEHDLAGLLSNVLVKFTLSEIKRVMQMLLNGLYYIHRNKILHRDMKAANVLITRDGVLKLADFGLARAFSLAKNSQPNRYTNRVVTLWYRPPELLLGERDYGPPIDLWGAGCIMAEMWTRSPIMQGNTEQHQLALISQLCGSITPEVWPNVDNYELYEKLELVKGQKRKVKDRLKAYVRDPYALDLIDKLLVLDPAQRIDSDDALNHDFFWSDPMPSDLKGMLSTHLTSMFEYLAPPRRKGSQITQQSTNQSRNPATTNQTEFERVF

[24] = test system: HCT-116; assay: Antitumor activity against human HCT116 cells xenografted in NCR athymic mouse assessed as reduction in tumor volume at 50 mg/kg, po twice daily at 12 to 14 hrs intervals measured after 12 days relative to vehicle treated control; type: functional; parameters: scale not given: the % may be the effect or the level left
[25] = test system: HT-29; assay: Reduction of RNA polymerase 2 expression in human HT-29 cells; type: functional, cell-based
[26] = test system: HCT-116; assay: Antitumor activity against human HCT116 cells xenografted in NCR athymic mouse assessed as growth delay at 50 mg/kg, po twice daily at 12 to 14 hrs intervals measured after 12 days relative to vehicle treated control; type: functional, organism-based; parameters: dose 50 mg/kg
[27] = test system: HT-29; assay: Cell cycle arrest in human HT-29 cells assessed as accumulation at G2/M phase at 3.3 uM up to 16 hrs measuring distribution of bromodeoxyuridine incorporation by flow cytometry; type: functional, cell-based
[28] = test system: HT-29; assay: Cell cycle arrest in human HT-29 cells assessed as reduction at S phase at 3.3 uM up to 16 hrs measuring distribution of bromodeoxyuridine incorporation by flow cytometry; type: functional, cell-based
[29] = test system: HT-29; assay: Inhibition of CDK-mediated RB phosphorylation at Ser-780 in human HT29 cells at 0.1 to 20 uM after 24 hrs by Western blotting relative to control; type: cell-based

Cyclin-dependent kinase 4/cyclin D1, sequence (P11802 whole entry): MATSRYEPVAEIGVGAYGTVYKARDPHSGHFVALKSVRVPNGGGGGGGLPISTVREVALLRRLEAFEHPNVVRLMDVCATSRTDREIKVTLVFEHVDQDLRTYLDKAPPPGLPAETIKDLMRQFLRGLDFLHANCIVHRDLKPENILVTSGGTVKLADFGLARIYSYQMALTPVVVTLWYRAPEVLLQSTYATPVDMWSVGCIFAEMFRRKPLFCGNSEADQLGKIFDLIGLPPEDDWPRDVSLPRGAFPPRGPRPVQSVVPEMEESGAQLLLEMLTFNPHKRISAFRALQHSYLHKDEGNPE
Cyclin-dependent kinase 4/cyclin D1, sequence (P24385 whole entry, further chain): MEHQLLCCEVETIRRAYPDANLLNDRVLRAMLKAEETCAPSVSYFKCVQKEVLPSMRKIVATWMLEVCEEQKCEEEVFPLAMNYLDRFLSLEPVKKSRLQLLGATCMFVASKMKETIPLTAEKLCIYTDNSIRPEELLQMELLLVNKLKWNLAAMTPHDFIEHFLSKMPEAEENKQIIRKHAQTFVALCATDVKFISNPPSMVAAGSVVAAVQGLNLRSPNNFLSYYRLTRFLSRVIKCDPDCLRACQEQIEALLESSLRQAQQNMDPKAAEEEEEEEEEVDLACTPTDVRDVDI

Structure (SMILES)	IC50 [1]	GI50 [2]	IC50 [3]	GI50 [4]	GI50 [6]	IC50 [7]	GI50 [8]	GI50 [9]	GI50 [10]	IC50 [11]	IC50 [12]	metabolised at 0.5 h, 10 µM [13]	GI50 [14]	clearance [16]	Cmax [17]	half-life [18]	bioavailability [19]	AUC at 24 h [20]	Vd [21]	solubility ([22]; buffer)	further results
CC[C@H](Nc1nc(NCc2ccccn2)c2ncn(C(C)C)c2n1)C(C)(C)O	20 µM	42 µM	> 200 µM	19 µM	38 µM	24 µM	> 50 µM	32 µM	44 µM	0.31 µM	4.3 µM	53%	26 µM								IC50 [5]: > 200 µM
CC[C@@H](Nc1nc(NCc2cccnc2)c2ncn(C(C)C)c2n1)C(C)(C)O	7.5 µM	20 µM	> 200 µM	10 µM	13 µM	6.2 µM	19 µM	13 µM	21 µM	0.2 µM	3.1 µM	16%	21 µM	0.2 mL/min	275 µM	0.6 h	15%	223 µM·h	0.01 L	soluble	Ratio [15]: 2; IC50 [23]: 0.21 µM
CC[C@H](Nc1nc(NCc2cccnc2)c2ncn(C(C)C)c2n1)C(C)(C)O	12 µM	5 µM	> 200 µM	4 µM	5.4 µM	4.4 µM	5.4 µM	4.1 µM	5.8 µM	0.07 µM	2.5 µM	22%	6.8 µM	0.4 mL/min	215 µM	0.4 h	15%	109 µM·h	0.012 L	soluble	Ratio [15]: 2; IC50 [23]: 0.16 µM
CC[C@@H](Nc1nc(NCc2cccnc2)c2ncn(C(C)C)c2n1)[C@H](C)O														0.283 mL/min	377 µM	1.7 h	15%	158 µM·h	0.084 L	soluble	
CC[C@H](Nc1nc(NCc2cccnc2)c2ncn(C(C)C)c2n1)[C@@H](C)O [listing 1 of 2 here]														0.15 mL/min	268 µM	2.8 h	15%	298 µM·h	0.013 L	soluble	Activity [24]: 49%
CC[C@H](Nc1nc(NCc2cccnc2)c2ncn(C(C)C)c2n1)[C@@H](C)O.O=C(O)C(F)(F)F																					solubility ([22]; water, read-out: solubility): > 25 mg/mL
CC[C@H](Nc1nc(NCc2cccnc2)c2ncn(C(C)C)c2n1)[C@@H](C)O [listing 2 of 2 here]																					Activity [25]: Active; Activity [26]: Active; Activity [27]: Active; Activity [28]: Active; inhibition [29]: Active
CC[C@@H](Nc1nc(NCc2ccccn2)c2ncn(C(C)C)c2n1)C(C)O (mixture of isomers)	48 µM	20 µM	> 200 µM	15 µM	37 µM	39 µM	42 µM	18 µM	27 µM	0.52 µM	0.55 µM	97%	20 µM								IC50 [5]: 73 µM
CC[C@H](Nc1nc(NCc2ccccn2)c2ncn(C(C)C)c2n1)C(C)O (mixture of isomers)	18 µM	21 µM	> 200 µM	10 µM	23 µM	8.9 µM	20 µM	10 µM	17 µM	0.05 µM	2.6 µM	67%	15.5 µM								IC50 [5]: 77 µM
CC[C@H](Nc1nc(NCc2cccnc2)c2ncn(C(C)C)c2n1)C(O)C(C)C (mixture of isomers)	31 µM	22 µM	> 200 µM	19 µM	22 µM	22 µM	26 µM	22 µM	26.5 µM	1.1 µM	3.5 µM	62%	20.5 µM								
CC[C@H](Nc1nc(NCc2cccnc2)c2ncn(C(C)C)c2n1)C(O)C(C)(C)C (mixture of isomers)	13 µM	23 µM	> 200 µM	18 µM	19 µM	21 µM	22 µM	24 µM	22 µM	0.39 µM	3.5 µM	50%	18.5 µM								
CC[C@H](CO)Nc1nc(NCc2ccccc2)c2ncn(C(C)C)c2n1 [SELICICLIB]		3.25 µM	> 50 µM	4.45 µM			6.4 µM	5.05 µM				67%	5.4 µM	0.85 mL/min	93.7 µM	1.4 h		53.4 µM·h	0.073 L		
